Reference: PubChem BioAssay (NCI)
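Test compounds were applied to cells in 96-well plates for 48 hours at 5 doses. Abbreviation: GI50, concentration required for 50% inhibition of growth. TGI is the concentration that stops growth completely.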

How the values were obtained:
Assay in all cases: NCI-60 cell line screen, 48 h
A549 NSCLC = test system: A549 NSCLC
KM12 colon = test system: KM12 colon
MALME-3M melanoma = test system: MALME-3M melanoma
NCI-H226 lung = test system: NCI-H226 lung
OVCAR-5 ovarian = test system: OVCAR-5 ovarian
SF-539 CNS = test system: SF-539 CNS
SK-OV-3 ovarian = test system: SK-OV-3 ovarian
SN12C renal = test system: SN12C renal
HCC-2998 colon = test system: HCC-2998 colon
UACC-62 melanoma = test system: UACC-62 melanoma

Compound | TGI (A549 NSCLC) [µM] | TGI (KM12 colon) [µM] | TGI (MALME-3M melanoma) [µM] | TGI (NCI-H226 lung) [µM] | TGI (OVCAR-5 ovarian) [µM] | TGI (SF-539 CNS) [µM] | TGI (SK-OV-3 ovarian) [µM] | TGI (SN12C renal) [µM] | TGI (HCC-2998 colon) [µM] | TGI (UACC-62 melanoma) [µM] | GI50 (A549 NSCLC) [µM] | GI50 (HCC-2998 colon) [µM] | GI50 (KM12 colon) [µM] | GI50 (MALME-3M melanoma) [µM] | GI50 (OVCAR-5 ovarian) [µM] | GI50 (SF-539 CNS) [µM] | GI50 (SK-OV-3 ovarian) [µM] | GI50 (SN12C renal) [µM] | GI50 (UACC-62 melanoma) [µM] | GI50 (NCI-H226 lung) [µM]
Cc1c(C(=O)/C=C/c2ccccc2[N+](=O)[O-])[n+](=O)c2ccccc2n1[O-] | 34.3 | 22 | 27.8 | 24 | 26.9 | 10.2 | 31.8 | 18.6 | – | – | – | – | – | – | – | – | – | – | – | –
Cc1ccc2oc(=O)c(-c3ccccc3)nc2c1 | > 100 | 50.4 | 66.1 | > 100 | 99.8 | 50.5 | – | > 100 | 41.9 | – | – | – | – | – | – | – | – | – | – | –
Cc1ccc(NC(=O)/C(Cc2nc3ccc([N+](=O)[O-])cc3[nH]c2=O)=N\NC(=O)C[n+]2ccccc2)c(C)c1 | > 100 | > 100 | – | > 100 | > 100 | > 100 | 56.5 | 98.1 | > 100 | > 100 | – | – | – | – | – | – | – | – | – | –
N#CC(C#N)=c1c2nsnc2c(=C(C#N)C#N)c2nsnc12 | 10.3 | 3.85 | 3.11 | 31.9 | 3.3 | 3.46 | – | – | 3.25 | – | – | – | – | – | – | – | – | – | – | –
c1cnn2ncc(-c3ccnc(Nc4ccc5c(c4)OCCO5)n3)c2c1 | 3.07 | 0.303 | 0.276 | – | > 25 | 0.222 | > 25 | > 25 | 0.514 | 0.113 | 0.0753 | 0.0911 | 0.07 | 0.0833 | 0.0866 | 0.0679 | 0.178 | 0.0875 | 0.0475 | –
Clc1ccc2c(c1)N(c1ncnc3ccc(-c4cnc5[nH]ncc5c4)cc13)CC2 | > 100 | > 100 | > 100 | > 100 | > 100 | > 100 | – | > 100 | > 100 | > 100 | 0.33 | 1.07 | 3.53 | 1.12 | 0.396 | 0.645 | – | 0.407 | 0.46 | 0.896
O=C1c2ccccc2-c2c1c1ccccc1c(=O)n2CCNCCn1c2c(c3ccccc3c1=O)C(=O)c1ccccc1-2 | > 25 | > 25 | > 25 | > 25 | > 25 | > 25 | – | > 25 | – | > 25 | > 25 | – | > 25 | > 25 | > 25 | > 25 | – | > 25 | > 25 | > 25
C=C1C2Oc3ccccc3C1N(c1ccccc1)O2 (stereo not given) | > 100 | 42.2 | > 100 | > 100 | > 100 | 57.3 | > 100 | 88.1 | > 100 | – | – | – | – | – | – | – | – | – | – | –
COC(=O)c1ccc2c(c1)C(=O)c1c-2n(CCCN=[N+]=[N-])c(=O)c2cc([N+](=O)[O-])ccc12 | – | > 100 | > 100 | > 100 | > 100 | > 100 | > 100 | > 100 | > 100 | > 100 | – | > 100 | > 100 | 63 | > 100 | 53.1 | 35.3 | > 100 | 37.2 | > 100
C[C@]12C/C(=C/O)C(=O)C(O)=C1CC[C@@H]1C2CC[C@@]2(C)C1CC[C@@H]2O (stereo not given in full) | > 100 | 76.9 | 46.2 | 36.8 | 46.1 | 34.2 | 65.5 | 61.1 | – | 46.7 | – | – | – | – | – | – | – | – | – | –
O=C1/C(=C/c2cccc([N+](=O)[O-])c2)Sc2scc(-c3ccc([N+](=O)[O-])cc3)[n+]21 | > 100 | 33.3 | – | > 100 | 51.2 | > 100 | 90.5 | 40.9 | 29.9 | 48.5 | – | – | – | – | – | – | – | – | – | –
CC1=NN(C(=O)c2ccncc2)C(=O)C1N=Nc1ccc(F)cc1 (stereo not given) | > 100 | – | > 100 | > 100 | > 100 | > 100 | > 100 | > 100 | – | > 100 | – | – | – | – | – | – | – | – | – | –
CCCCCCC(C)CCCCCCCCCCC(=O)O (stereo not given) | > 100 | > 100 | > 100 | > 100 | > 100 | > 100 | > 100 | > 100 | – | > 100 | – | – | – | – | – | – | – | – | – | –
COc1cc(CNc2nc3ccc(C(F)(F)F)cc3nc2-c2ccccc2)cc(OC)c1OC | > 100 | > 100 | > 100 | – | > 100 | > 100 | > 100 | > 100 | > 100 | > 100 | – | – | – | – | – | – | – | – | – | –
O=c1[nH]c2cc([N+](=O)[O-])ccc2nc1/C(=N\Nc1ccccc1)C(O)c1ccc2c(c1)OCO2 (stereo not given) | > 100 | > 100 | > 100 | > 100 | – | > 100 | > 100 | > 100 | > 100 | > 100 | – | – | – | – | – | – | – | – | – | –
CCCCCCCCCCCCCC[n+]1cccc(C(N)=O)c1 | 18.4 | – | 4.21 | 5.11 | 6.25 | – | 8.13 | 8.34 | – | 3.48 | 4.08 | 2.2 | – | 1.75 | 1.62 | – | 1.9 | 1.86 | 1.15 | 1.63
O=C1c2cccc3cccc(c23)C(=O)N1O | > 100 | > 100 | > 100 | – | > 100 | > 100 | > 100 | > 100 | > 100 | > 100 | – | – | – | – | – | – | – | – | – | –
c1ccc2[nH]c(CNc3ccc(C4C[Se]N=N4)cc3)nc2c1 (stereo not given) | > 100 | > 100 | > 100 | – | > 100 | > 100 | > 100 | > 100 | > 100 | 99 | – | – | – | – | – | – | – | – | – | –
CSc1ccc(N(C)c2nc(C)nc3c2CCC3)cc1 | > 100 | 12.9 | – | > 100 | > 100 | < 0.01 | 16.1 | > 100 | 10.8 | 25 | < 0.01 | < 0.01 | < 0.01 | – | 1.23 | < 0.01 | < 0.01 | < 0.01 | < 0.01 | < 0.01
